In PMC9994133, “Substrate selectivity and inhibition of histidine JmjC hydroxylases MINA53 and NO66” (RSC Chemical Biology, 2023):
Square brackets hold non-standard residues; d marks the D form. Ends that are not written are not given here. Peptide text beside a SMILES is read from it. Aad = N[C@@H](CCCC(=O)O)C(=O)O

Assays:
[1] = molecular target: T1, NO66 (Homo sapiens, UniProt Q9H6W3); experiment: NO66 inhibition assay by Rpl8 peptides (MALDI-TOF MS); format: biochemical; settings: 10 μM 2OG; for IC50: 400 nM NO66, 10 nM to 250 μM inhibitor Rpl peptide, 100 μM L-ascorbic acid, 10 μM ferrous ammonium sulfate, 50 mM MES pH 7.0, Rpl8-His216 substrate, duplicate assays; for inhibition at 5 µM: 5 μM inhibitor Rpl8 peptide, 400 nM NO66, 100 μM LAA, 10 μM FAS, 50 mM MES pH 7.0, 10 min preincubation, then 5 μM Rpl8-His216 substrate, 2 hours, room temperature, duplicate
T1 construct: His6; made in house; host or cells: Escherichia coli BL21(DE3), pET-28b
T1 sequence (Q9H6W3 167-641): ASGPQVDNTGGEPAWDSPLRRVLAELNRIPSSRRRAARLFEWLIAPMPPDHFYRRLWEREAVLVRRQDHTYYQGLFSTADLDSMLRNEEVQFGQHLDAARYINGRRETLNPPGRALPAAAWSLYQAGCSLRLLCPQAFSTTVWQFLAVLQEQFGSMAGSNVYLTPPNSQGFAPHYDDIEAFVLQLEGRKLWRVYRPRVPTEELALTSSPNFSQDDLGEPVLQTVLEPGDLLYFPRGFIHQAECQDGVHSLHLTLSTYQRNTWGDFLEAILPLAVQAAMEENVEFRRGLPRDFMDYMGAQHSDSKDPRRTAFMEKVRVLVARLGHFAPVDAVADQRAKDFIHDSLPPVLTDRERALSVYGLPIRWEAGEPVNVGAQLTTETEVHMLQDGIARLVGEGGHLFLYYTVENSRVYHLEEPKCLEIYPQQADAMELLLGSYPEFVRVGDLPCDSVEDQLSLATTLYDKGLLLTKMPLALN
Experimental: (§1) Having shown that our Rpl peptides are not, at least efficient, ROX substrates, we explored them as inhibitors of the recombinant human ROXs using MALDI-TOF assays (Rpl8/27a-N^τ-Me, Rpl8/27a-N^π-Me, Rpl8/27a-1-TriaA, Rpl8/27a-4-TriaA and Rpl8/27a-TetrA were excluded from the panels for NO66 and MINA53, respectively, due to signal overlap between the two peptides in the assays). Synthetic Rpl peptides (5 or 50 μM) were incubated with MINA53/NO66 (400 nM), ferrous ammonium sulfate (10 μM) and 2OG (10 μM) for 10 minutes, after which time the Rpl27a-His39 and Rpl8-His216 substrates were added, respectively, and the reactions were carried out for 2 hours at room temperature (Fig. 4 and Fig. S9, ESI ^†).
(§2) IC50 values were determined for the peptides that manifested clear inhibition potency by varying the concentration of the Rpl peptide inhibitor from 10 nM to 250 μM (Fig. 5 and Table 1).
(§3) IC50 values for MINA53 inhibition by Rpl27a peptides and NO66 inhibition by Rpl8 peptides. Conditions: 400 nM MINA53/NO66, 10 nM to 250 μM inhibitor Rpl peptide, 100 μM L-ascorbic acid, 10 μM ferrous ammonium sulfate, 10 μM 2OG in 50 mM MES buffer (pH 7.0) for NO66 and 50 mM HEPES (pH 7.5) for MINA53
(§4) MINA53 and NO66 inhibition assays in the presence of Rpl27a31-49 and Rpl8_205-224 peptides, respectively, were performed under the following assay conditions: 400 nM MINA53/NO66, 5/50 μM inhibitor Rpl peptide, 100 μM LAA, 10 μM FAS, 10 μM 2OG in 50 mM MES buffer (pH 7.0) for NO66 and 50 mM HEPES buffer (pH 7.5) for MINA53.[24] After 10 minutes of preincubation 5 μM of substrate peptide was added and the reaction was incubated for 2 hours at room temperature. A positive control reaction containing enzyme and unmodified peptide substrate without any inhibitors was included. After 2 hours the reaction was stopped by addition of 20 μL of 10% (v/v) LC-MS grade formic acid (Fisher Scientific), mixed 1 : 1 with α-cyano-4-hydroxycinnamic acid (CHCCA) matrix dissolved in a mixture of H2O and MeCN (1 : 1, v/v), and loaded onto an MTP 384 polished steel target to be analyzed by MALDI-TOF MS. MINA53/NO66 residual activity was determined by calculating the relative integral of the […] peptide to a control reaction in absence of potential inhibitory peptides. Experiments were carried out in duplicate.
3. Inhibition supporting figure
Figure S9. Results from NO66 inhibition at A) 5 µM and B) 50 µM of Rpl8-based peptides. Error
bars are standard errors (SE) of duplicate analyses. […]

[2] = molecular target: T2, MINA53 (Homo sapiens, UniProt Q8IUF8); experiment: MINA53 inhibition assay by Rpl27a peptides (MALDI-TOF MS); format: biochemical; settings: 10 μM 2OG; for IC50: 400 nM MINA53, 10 nM to 250 μM inhibitor Rpl peptide, 100 μM L-ascorbic acid, 10 μM ferrous ammonium sulfate, 50 mM HEPES pH 7.5, Rpl27a-His39 substrate, duplicate assays
T2 construct: His6; made in house; host or cells: Escherichia coli BL21(DE3), pET-28b
Experimental: as §1
Fig. 4 Results for MINA53 inhibition at (a) 5 μM and (b) 50 μM by Rpl27a peptides. Error bars reported as standard errors (SE) carried out in duplicate. See Fig. 2 for analogue structures.
as §2, §3, §4

T2 sequence (Q8IUF8 26-464): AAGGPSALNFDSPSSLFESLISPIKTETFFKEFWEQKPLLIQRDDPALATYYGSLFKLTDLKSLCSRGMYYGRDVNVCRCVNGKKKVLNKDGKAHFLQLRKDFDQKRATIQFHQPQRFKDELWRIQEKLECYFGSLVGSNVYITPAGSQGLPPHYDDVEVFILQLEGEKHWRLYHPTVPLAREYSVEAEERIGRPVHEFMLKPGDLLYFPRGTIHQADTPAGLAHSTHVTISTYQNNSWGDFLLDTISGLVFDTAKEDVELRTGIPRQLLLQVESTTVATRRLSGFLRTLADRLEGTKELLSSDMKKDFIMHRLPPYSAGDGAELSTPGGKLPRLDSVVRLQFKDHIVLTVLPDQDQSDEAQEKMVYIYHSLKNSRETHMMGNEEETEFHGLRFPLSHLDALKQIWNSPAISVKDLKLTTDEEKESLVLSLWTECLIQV

| Molecule | IC50 [1] [µM] | inhibition at 5 µM [1] [%] | IC50 [2] [nM] | MINA53 inhibition at 5 μM (in words) ([2]; 5 μM inhibitor Rpl27a peptide, 400 nM MINA53, 100 μM LAA, 10 μM FAS, 50 mM HEPES pH 7.5, 10 min preincubation, then 5 μM Rpl27a-His39 substrate, 2 hours, room temperature, duplicate) | MINA53 inhibition at 50 μM (in words) ([2]; 50 μM inhibitor Rpl27a peptide, 400 nM MINA53, 100 μM LAA, 10 μM FAS, 50 mM HEPES pH 7.5, 10 min preincubation, then 5 μM Rpl27a-His39 substrate, 2 hours, room temperature, duplicate) |
| --- | --- | --- | --- | --- | --- |
| NPVEHPFGGGNNQHIGKPST-NH2 [Rpl8-Asn216] | 8.86 ± 0.36 | ~50 | – | – | – |
| CC[C@H](C)[C@H](NC(=O)[C@H](Cc1c[nH]cn1)NC(=O)[C@H](CCC(N)=O)NC(=O)[C@H](CCCC(N)=O)NC(=O)[C@H](CC(N)=O)NC(=O)CNC(=O)CNC(=O)CNC(=O)[C@H](Cc1ccccc1)NC(=O)[C@@H]1CCCN1C(=O)[C@H](Cc1c[nH]cn1)NC(=O)[C@H](CCC(=O)O)NC(=O)[C@@H](NC(=O)[C@@H]1CCCN1C(=O)[C@@H](N)CC(N)=O)C(C)C)C(=O)NCC(=O)N[C@@H](CCCCN)C(=O)N1CCC[C@H]1C(=O)N[C@@H](CO)C(=O)N[C@H](C(N)=O)[C@@H](C)O [Rpl8-hGln216] (H-NPVEHPFGGGN[Aad](NH2)QHIGKPST-NH2; N-terminus assumed) | 11.2 ± 0.4 | ~50 | – | – | – |

Other lines, results leading:

| IC50 [1] [µM] | inhibition at 5 µM [1] [%] | IC50 [2] [nM] | MINA53 inhibition at 5 μM (in words) ([2]; 5 μM inhibitor Rpl27a peptide, 400 nM MINA53, 100 μM LAA, 10 μM FAS, 50 mM HEPES pH 7.5, 10 min preincubation, then 5 μM Rpl27a-His39 substrate, 2 hours, room temperature, duplicate) | MINA53 inhibition at 50 μM (in words) ([2]; 50 μM inhibitor Rpl27a peptide, 400 nM MINA53, 100 μM LAA, 10 μM FAS, 50 mM HEPES pH 7.5, 10 min preincubation, then 5 μM Rpl27a-His39 substrate, 2 hours, room temperature, duplicate) | Molecule |
| --- | --- | --- | --- | --- | --- |
| – | – | 1020 ± 110 | displayed inhibition | strong inhibition | GRGNAGGLNHHRINFDKYHP-NH2 [Rpl27a-Asn39] |
| – | – | 390 ± 160 | – | – | GRGNAGGLQHHRINFDKYHP-NH2 [Rpl27a-Gln39] |
| – | – | 1470 ± 270 | – | – | CC[C@H](C)[C@H](NC(=O)[C@H](CCCNC(=N)N)NC(=O)[C@H](Cc1c[nH]cn1)NC(=O)[C@H](Cc1c[nH]cn1)NC(=O)[C@H](CCCC(N)=O)NC(=O)[C@H](CC(C)C)NC(=O)CNC(=O)CNC(=O)[C@H](C)NC(=O)[C@H](CC(N)=O)NC(=O)CNC(=O)[C@H](CCCNC(=N)N)NC(=O)CN)C(=O)N[C@@H](CC(N)=O)C(=O)N[C@@H](Cc1ccccc1)C(=O)N[C@@H](CC(=O)O)C(=O)N[C@@H](CCCCN)C(=O)N[C@@H](Cc1ccc(O)cc1)C(=O)N[C@@H](Cc1c[nH]cn1)C(=O)N1CCC[C@H]1C(N)=O [Rpl27a-hGln39] (H-GRGNAGGL[Aad](NH2)HHRINFDKYHP-NH2) |
